Assay results taken from PubChem BioAssay (NCI).
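96-well plates; 48 h exposure; 5 concentrations. Endpoints by linear interpolation between flanking doses. Not reached: highest tested concentration assigned. TGI: concentration producing complete growth inhibition.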

How the values were obtained:
Test in all cases: DTP human tumour cell line panel, 48 h
[1] = tested on: SF-268 CNS
[2] = tested on: SK-MEL-28 melanoma
[3] = tested on: RPMI-8226 leukemia
[4] = tested on: SF-539 CNS
[5] = tested on: OVCAR-4 ovarian
[6] = tested on: DLD-1 colon
[7] = tested on: KM12 colon
[8] = tested on: SF-295 CNS
[9] = tested on: KM20L2 colon
[10] = tested on: UO-31 renal
[11] = tested on: EKVX NSCLC
[12] = tested on: K-562 leukemia
[13] = tested on: HL-60(TB) leukemia
[14] = tested on: HCT-15 colon
[15] = tested on: SN12C renal
[16] = tested on: M14 melanoma
[17] = tested on: SNB-19 CNS
[18] = tested on: TK-10 renal
[19] = tested on: SK-MEL-5 melanoma
[20] = tested on: HOP-62 NSCLC
[21] = tested on: MOLT-4 leukemia
[22] = tested on: SW-620 colon
[23] = tested on: OVCAR-5 ovarian
[24] = tested on: NCI-H23 lung
[25] = tested on: NCI-H226 lung
[26] = tested on: IGROV1 ovarian
[27] = tested on: A498 renal
[28] = tested on: CCRF-CEM leukemia
[29] = tested on: DMS 114 small cell lung
[30] = tested on: ACHN renal
[31] = tested on: 786-0 renal
[32] = tested on: M19-MEL melanoma
[33] = tested on: A549 NSCLC
[34] = tested on: LOX IMVI melanoma
[35] = tested on: OVCAR-3 ovarian
[36] = tested on: SK-MEL-2 melanoma
[37] = tested on: LXFL 529 NSCLC
[38] = tested on: HOP-18 NSCLC
[39] = tested on: XF 498 CNS
[40] = tested on: U251 CNS
[41] = tested on: SK-OV-3 ovarian
[42] = tested on: SNB-75 CNS
[43] = tested on: HT29 colon
[44] = tested on: HCT-116 colon
[45] = tested on: CAKI-1 renal
[46] = tested on: MALME-3M melanoma
[47] = tested on: SNB-78 CNS
[48] = tested on: SR leukemia
[49] = tested on: RXF 393 renal
[50] = tested on: NCI-H522 lung
[51] = tested on: DMS 273 small cell lung
[52] = tested on: OVCAR-8 ovarian
[53] = tested on: HOP-92 NSCLC
[54] = tested on: HCC-2998 colon
[55] = tested on: UACC-62 melanoma
[56] = tested on: NCI-H460 lung
[57] = tested on: UACC-257 melanoma

Measured: TGI

COC(=O)C(/C(=N/NC(N)=O)C(=O)Nc1c(C)cccc1C(C)(C)C)c1nc2ccc(Cl)cc2[nH]c1=O (configuration not stated)
> 100 µM: all assays above
